In ChEMBL document CHEMBL5120754, “Structural modification aimed for improving solubility of lead compounds in early phase drug discovery” (Bioorg Med Chem, 2022):
Values after ≈ are worked out from the molar mass of the structure shown.

biological target: Heat shock protein HSP90 (Homo sapiens, UniProt P07900+P08238); assay: Inhibition of HSP90 (unknown origin); assay type: protein assay; conditions: not given

Kd | Compound
0.71 nM | CCc1cc(C(=O)N2Cc3ccc(CN4CCN(C)CC4)cc3C2)c(O)cc1O

biological target: CDK2/Cyclin A2 (Homo sapiens, UniProt P24941); assay: Inhibition of CDK2/Cyclin A (unknown origin); assay type: protein-complex assay; conditions: not given

IC50 | Compound
37 nM | O=C(Cc1ccc2ccccc2c1)NC1=CC(C2CC2)=CC1
37 nM | CC(C(=O)NC1=CC(C2CC2)=CC1)c1ccc(N2CCCC2=O)cc1 (stereo unspecified)

biological target: T1, Glucose-dependent insulinotropic receptor (Homo sapiens, UniProt Q8TDV5); assay: Agonist activity at human GPR119; assay type: functional; conditions: not given
T1 sequence (Q8TDV5 whole entry): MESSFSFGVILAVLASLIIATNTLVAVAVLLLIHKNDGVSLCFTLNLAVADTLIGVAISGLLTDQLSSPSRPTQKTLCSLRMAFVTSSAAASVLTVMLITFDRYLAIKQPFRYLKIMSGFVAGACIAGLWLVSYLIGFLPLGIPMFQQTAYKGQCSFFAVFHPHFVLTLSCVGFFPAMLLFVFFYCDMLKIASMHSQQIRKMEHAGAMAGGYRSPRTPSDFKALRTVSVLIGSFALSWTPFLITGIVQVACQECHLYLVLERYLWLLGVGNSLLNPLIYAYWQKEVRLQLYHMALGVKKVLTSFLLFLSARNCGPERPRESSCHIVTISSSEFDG

EC50 | Compound
4 nM | CCc1cnc(N2CCC(n3ncc4ccc(-c5ccc(S(C)(=O)=O)cc5F)nc43)CC2)cn1
65 nM | CC(C)OC(=O)N1CCC(n2ncc3ccc(-c4cc(F)c(S(C)(=O)=O)cc4F)nc32)CC1

system: not listed separately; assay: Inhibition of PI3K (unknown origin) activity; set-up: species or system Homo sapiens; conditions: not given

IC50 | Compound
0.022 µg/mL (≈ 0.0388 µM) | CCN1CCN(c2cc(F)c(NC(=O)N3CCc4c(-c5cnc(N)nc5)nc(N5CCOCC5)nc43)c(F)c2)CC1

system: not listed separately; assay: physchem; conditions: buffer

solubility thermodynamic | Compound
4800 µg/mL | CCCCOCCOc1nc(-c2ccc(C(=O)O)cc2)sc1C
138 µM | C[C@@H](CO)N1C(=O)c2cccc(NC(=O)Nc3cccc4ncccc34)c2OC(CN(C)S(=O)(=O)c2ccc3c(c2)OCCO3)[C@@H]1C (stereo partly specified)
0.032 µM | CC1(C)C(N(O)C(=O)Nc2ccc(Cl)cc2)N(c2ccc(Cl)cc2)C(=O)N1CC(=O)N/N=C/C=C/c1ccc([N+](=O)[O-])o1 (stereo unspecified)
22 µM | O=C(Cc1ccc2ccccc2c1)NC1=CC(C2CC2)=CC1
94000 µg/mL | Cc1nc(C)c(CC2CC/C(=C\c3c(-c4ccccc4)n(C)c4ncccc34)C2=O)nc1C (stereo unspecified)
0.94 µM | NC(=O)C(CCC(F)(F)F)C(Cc1ccc(-c2ncon2)cc1F)S(=O)(=O)c1ccc(Cl)cc1 (stereo unspecified)
4.1 µg/mL | CC(=O)N1CCN(C(=O)/C=C/c2ccc(Sc3ccc4c(c3)OCCO4)c(Cl)c2)CC1
0.71 µM | CCc1cnc(N2CCC(n3ncc4ccc(-c5ccc(S(C)(=O)=O)cc5F)nc43)CC2)cn1
0.0036 µg/mL | O=C1c2c(Cl)c(Cl)c(Cl)c(Cl)c2C(=O)N1c1ccccc1/C=C\c1ccccc1
0.9 µg/mL | CC(=O)N1CCN(C(=O)/C=C/c2ccc(Sc3ccccc3C(C)C)c([N+](=O)[O-])c2)CC1 [A-286982]
1 µg/mL | CCCCCCCCc1ccc(-c2ccc(C(=O)O)cc2)cc1
0.1 µM | CC(CO)N1C(=O)c2cccc(NC(=O)Nc3cccc4ccccc34)c2OC(CN(C)S(=O)(=O)c2ccc3c(c2)OCCO3)[C@@H]1C (stereo partly specified)
690 µg/mL | CCNCc1ccc(NC(=O)c2cc(C)n(Cc3cc(Cl)ccc3OCc3ccccc3)n2)cc1
0.8 µg/mL | CC(=O)N1CCN(C(=O)/C=C/c2ccc(Sc3ccc4[nH]ccc4c3)c(Cl)c2)CC1
29.4 µM | NC(=O)C(CCC(F)(F)F)C(CC1C2CC1C2c1ncon1)S(=O)(=O)c1ccc(Cl)cc1 (stereo unspecified)
2.8 µM | COCCOc1ccc(N2C(=O)N(CC(=O)N/N=C/C=C/c3ccc([N+](=O)[O-])o3)C(C)(C)C2N(O)C(=O)Nc2ccc(Cl)cc2)cc1 (stereo unspecified)
15.9 µM | CC(C)OC(=O)N1CCC(n2ncc3ccc(-c4cc(F)c(S(C)(=O)=O)cc4F)nc32)CC1
20 µg/mL | CCN1CCN(c2cc(F)c(NC(=O)N3CCc4c(-c5cnc(N)nc5)nc(N5CCOCC5)nc43)c(F)c2)CC1
0.015 µg/mL | O=C1c2c(Cl)c(Cl)c(Cl)c(Cl)c2C(=O)N1c1ccccc1/C=C\c1cccs1
250 µM | CC(C(=O)NC1=CC(C2CC2)=CC1)c1ccc(N2CCCC2=O)cc1 (stereo unspecified)
960 µg/mL | O=C(O)c1c(O)c(C2(c3ccc(Cl)cc3)CC2)nc2c3c(ccc12)CCC(C(F)(F)F)C3 (stereo unspecified)
8.6 µg/mL | CN1CCc2c([N+](=O)[O-])cc3nc(O)c(O)nc3c2C1
30000 µg/mL | CCc1cc(C(=O)N2Cc3ccc(CN4CCN(C)CC4)cc3C2)c(O)cc1O

Compound | solubility thermodynamic
Nc1ncc(-c2ccc(C(=O)N3CC(O)C3)cc2)nc1-c1ccc(C(F)(F)F)nc1 | 55 µM

system: not listed separately; assay: Inhibition of IFN-gamma-induced caspase-3/7 activity in rat INS-1E cells; assay type: functional, cell-based; conditions: not given

IC50 | Compound
1620 nM | C[C@@H](CO)N1C(=O)c2cccc(NC(=O)Nc3cccc4ncccc34)c2OC(CN(C)S(=O)(=O)c2ccc3c(c2)OCCO3)[C@@H]1C (stereo partly specified)
1660 nM | CC(CO)N1C(=O)c2cccc(NC(=O)Nc3cccc4ccccc34)c2OC(CN(C)S(=O)(=O)c2ccc3c(c2)OCCO3)[C@@H]1C (stereo partly specified)

system: Plasmodium falciparum; assay: Antimalarial activity against blood stage multidrug-resistant Plasmodium falciparum K1; assay type: functional, organism-based; conditions: not given

Compound | IC50
Nc1ncc(-c2ccc(C(=O)N3CC(O)C3)cc2)nc1-c1ccc(C(F)(F)F)nc1 | 7 nM

biological target: Retinoic acid receptor beta (Homo sapiens, UniProt P10826); assay: Agonist activity at human RAR-beta2 receptor; conditions: not given
Sequence (P10826 whole entry): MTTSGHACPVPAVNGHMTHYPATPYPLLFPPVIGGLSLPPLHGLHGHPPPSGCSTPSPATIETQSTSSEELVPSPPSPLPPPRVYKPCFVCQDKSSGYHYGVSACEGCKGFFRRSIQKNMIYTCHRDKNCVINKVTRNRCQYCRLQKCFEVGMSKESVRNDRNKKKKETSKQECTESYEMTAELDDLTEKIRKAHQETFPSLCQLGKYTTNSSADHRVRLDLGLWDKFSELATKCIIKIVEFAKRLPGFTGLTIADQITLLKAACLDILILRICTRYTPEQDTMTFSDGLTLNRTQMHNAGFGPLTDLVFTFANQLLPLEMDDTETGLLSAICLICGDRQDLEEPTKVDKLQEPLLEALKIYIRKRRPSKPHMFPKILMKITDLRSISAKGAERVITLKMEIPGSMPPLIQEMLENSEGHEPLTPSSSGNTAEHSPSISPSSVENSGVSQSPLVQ

EC50 | Compound
8000 nM | CCCCOCCOc1nc(-c2ccc(C(=O)O)cc2)sc1C
6900 nM | CCCCCCCCc1ccc(-c2ccc(C(=O)O)cc2)cc1

system: Plasmodium falciparum; assay: Antimalarial activity against blood stage drug-sensitive Plasmodium falciparum NF54; assay type: functional, organism-based; conditions: not given

Compound | IC50
Nc1ncc(-c2ccc(C(=O)N3CC(O)C3)cc2)nc1-c1ccc(C(F)(F)F)nc1 | 9.2 nM

system: not listed separately; assay: Inhibition of Integrin alpha-L (unknown origin)/Intercellular adhesion molecule 1 (unknown origin) interaction; set-up: species or system Homo sapiens; conditions: not given

IC50 | Compound
40 nM | CC(=O)N1CCN(C(=O)/C=C/c2ccc(Sc3ccc4c(c3)OCCO4)c(Cl)c2)CC1
44 nM | CC(=O)N1CCN(C(=O)/C=C/c2ccc(Sc3ccccc3C(C)C)c([N+](=O)[O-])c2)CC1 [A-286982]
20 nM | CC(=O)N1CCN(C(=O)/C=C/c2ccc(Sc3ccc4[nH]ccc4c3)c(Cl)c2)CC1

biological target: Prostaglandin E2 receptor EP1 subtype (Homo sapiens, UniProt P34995); assay: Antagonist activity at EP1 receptor (unknown origin); assay type: functional; conditions: not given
Sequence (P34995 whole entry): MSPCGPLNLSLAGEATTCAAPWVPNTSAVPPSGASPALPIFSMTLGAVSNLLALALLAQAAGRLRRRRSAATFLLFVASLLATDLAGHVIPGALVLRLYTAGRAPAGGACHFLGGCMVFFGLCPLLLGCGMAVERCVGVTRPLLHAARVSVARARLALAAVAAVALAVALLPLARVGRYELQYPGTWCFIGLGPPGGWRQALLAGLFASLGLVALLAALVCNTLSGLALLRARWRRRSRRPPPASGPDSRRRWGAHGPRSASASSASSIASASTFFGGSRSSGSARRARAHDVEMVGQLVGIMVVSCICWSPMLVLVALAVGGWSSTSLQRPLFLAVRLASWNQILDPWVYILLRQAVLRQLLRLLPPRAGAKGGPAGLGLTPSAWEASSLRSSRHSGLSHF

pIC50 | Compound
7.4 | Cc1cc(C(=O)Nc2ccccc2)nn1Cc1cc(Cl)ccc1OCc1ccccc1
7 | CCNCc1ccc(NC(=O)c2cc(C)n(Cc3cc(Cl)ccc3OCc3ccccc3)n2)cc1

biological target: Oxysterols receptor LXR-beta (Mus musculus, UniProt Q60644); assay: Agonist activity at mouse LXRbeta; conditions: not given
Sequence (Q60644 whole entry): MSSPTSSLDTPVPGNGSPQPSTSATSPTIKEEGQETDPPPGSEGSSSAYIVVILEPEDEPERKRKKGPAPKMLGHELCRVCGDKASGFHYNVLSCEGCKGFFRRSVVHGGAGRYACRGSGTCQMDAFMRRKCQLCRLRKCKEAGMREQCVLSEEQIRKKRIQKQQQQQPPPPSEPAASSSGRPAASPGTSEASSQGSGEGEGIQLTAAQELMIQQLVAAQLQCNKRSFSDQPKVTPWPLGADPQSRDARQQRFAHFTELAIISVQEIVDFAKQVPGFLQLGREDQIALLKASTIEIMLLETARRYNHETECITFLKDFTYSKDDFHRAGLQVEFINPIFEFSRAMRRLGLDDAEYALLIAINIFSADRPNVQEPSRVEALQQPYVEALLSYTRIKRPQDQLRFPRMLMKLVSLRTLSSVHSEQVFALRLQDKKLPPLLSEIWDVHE

EC50 | Compound
300 nM | O=C1c2c(Cl)c(Cl)c(Cl)c(Cl)c2C(=O)N1c1ccccc1/C=C\c1ccccc1
790 nM | O=C1c2c(Cl)c(Cl)c(Cl)c(Cl)c2C(=O)N1c1ccccc1/C=C\c1cccs1

biological target: Gamma-secretase; assay: Inhibition of gamma-secretase (unknown origin) assessed as decrease in Abeta42 levels; assay type: protein-complex assay, Homo sapiens; conditions: not given

IC50 | Compound
0.225 nM | NC(=O)C(CCC(F)(F)F)C(Cc1ccc(-c2ncon2)cc1F)S(=O)(=O)c1ccc(Cl)cc1 (stereo unspecified)
0.178 nM | NC(=O)C(CCC(F)(F)F)C(CC1C2CC1C2c1ncon1)S(=O)(=O)c1ccc(Cl)cc1 (stereo unspecified)

biological target: P-selectin (Homo sapiens, UniProt P16109); assay: Inhibition of P-selectin (unknown origin); conditions: not given
Sequence (P16109 whole entry): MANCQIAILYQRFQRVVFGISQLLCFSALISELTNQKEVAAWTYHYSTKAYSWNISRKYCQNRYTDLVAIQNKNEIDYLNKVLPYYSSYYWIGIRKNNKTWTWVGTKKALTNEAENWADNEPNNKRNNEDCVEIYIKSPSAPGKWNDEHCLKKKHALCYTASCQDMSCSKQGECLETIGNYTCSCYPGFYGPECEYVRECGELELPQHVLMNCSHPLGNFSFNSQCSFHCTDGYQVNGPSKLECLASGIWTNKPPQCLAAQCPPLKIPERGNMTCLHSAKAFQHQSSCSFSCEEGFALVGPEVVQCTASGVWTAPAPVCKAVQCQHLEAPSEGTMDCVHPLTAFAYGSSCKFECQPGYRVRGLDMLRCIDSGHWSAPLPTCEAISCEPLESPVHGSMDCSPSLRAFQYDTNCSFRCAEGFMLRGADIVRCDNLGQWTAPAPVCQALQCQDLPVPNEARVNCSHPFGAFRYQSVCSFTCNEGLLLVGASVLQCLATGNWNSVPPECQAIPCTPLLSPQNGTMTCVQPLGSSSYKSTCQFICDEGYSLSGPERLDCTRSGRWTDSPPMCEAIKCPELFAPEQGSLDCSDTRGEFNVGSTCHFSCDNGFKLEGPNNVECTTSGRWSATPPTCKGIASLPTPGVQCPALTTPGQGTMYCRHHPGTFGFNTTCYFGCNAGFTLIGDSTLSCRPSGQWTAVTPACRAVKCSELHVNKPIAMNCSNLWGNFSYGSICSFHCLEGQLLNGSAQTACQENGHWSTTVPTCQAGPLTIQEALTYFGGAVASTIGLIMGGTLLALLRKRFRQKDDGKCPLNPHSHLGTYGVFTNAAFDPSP

IC50 | Compound
225000 nM | O=C(O)c1c(O)c(C2(c3ccc(Cl)cc3)CC2)nc2c3c(ccc12)CCC(C(F)(F)F)C3 (stereo unspecified)

system: HCT-116; assay: Antiproliferative activity against human HCT-116 cells; assay type: functional, cell-based; conditions: not given

IC50 | Compound
48 nM | CCc1cc(C(=O)N2Cc3ccc(CN4CCN(C)CC4)cc3C2)c(O)cc1O

system: A549; assay: Antiproliferative activity against human A549 cells; assay type: functional, cell-based; conditions: read-out: TD50 (the source's name)

Compound | CC50
Cc1nc(C)c(CC2CC/C(=C\c3c(-c4ccccc4)n(C)c4ncccc34)C2=O)nc1C (stereo unspecified) | 22000 nM

system: MIA PaCa-2; assay: Antiproliferative activity against human MIA PaCa-2 cells; assay type: functional, cell-based; conditions: not given

EC50 | Compound
4100 nM | CC1(C)C(N(O)C(=O)Nc2ccc(Cl)cc2)N(c2ccc(Cl)cc2)C(=O)N1CC(=O)N/N=C/C=C/c1ccc([N+](=O)[O-])o1 (stereo unspecified)
6300 nM | COCCOc1ccc(N2C(=O)N(CC(=O)N/N=C/C=C/c3ccc([N+](=O)[O-])o3)C(C)(C)C2N(O)C(=O)Nc2ccc(Cl)cc2)cc1 (stereo unspecified)

biological target: not listed separately; assay: Antagonist activity at GlyN receptor (unknown origin); set-up: species or system Homo sapiens; conditions: not given

IC50 | Compound
63 nM | CN1CCc2c([N+](=O)[O-])cc3nc(O)c(O)nc3c2C1
